Experimental data as given in US11911361B2, “Stable cannabinoid formulations” (priority 2014, dated 2024).

How the values were obtained:
[1] = test system: minimal muscular or neurological impairment; experiment: Minimal motor impairment toxicity test (TOX), rats; assay type: in vivo; settings: Anticonvulsant Screening
[2] = test system: vincristine-induced peripheral neuropathy; experiment: Vincristine induced neuropathic pain study; assay type: in vivo; settings: CBD 15 minutes prior to each vincristine 0.1 mg/kg injection
Experimental: (§1) A study was designed to test the efficacy of CBD in preventing oxaliplatin- or vincristine-induced peripheral neuropathy. Two doses of CBD and vehicle were tested against each of these first line chemotherapeutic agents. Oxaliplatin was administered once at a dose of 6 mg/kg. CBD was administered 15 minutes prior to the single oxaliplatin injection. Vincristine was administered once daily for 7 days at a dose of 0.1 mg/kg. CBD was administered 15 minutes prior to each vincristine injection. For each treatment group the final sample size was 8 animals.

[3] = test system: oxaliplatin-induced peripheral neuropathy; experiment: Oxaliplatin induced neuropathic pain study; assay type: in vivo; settings: CBD 15 minutes prior to single oxaliplatin 6 mg/kg
Experimental: as §1

[4] = test system: paclitaxel-induced mechanical sensitivity; experiment: Paclitaxel induced neuropathic pain study (Von Frey mechanical sensitivity); assay type: in vivo, mice
[5] = test system: Metrazol-induced clonic seizure; experiment: Subcutaneous Metrazol (sc Met) seizure test; settings: for Sc MET N/F (animals protected/tested): mice; for ED50: Mus musculus, sc
[6] = test system: psychomotor seizure induced by 6 Hz stimulation; experiment: Minimal clonic seizure (6 Hz) psychomotor seizure test; settings: intraperitoneal; for 6 HZ N/F (animals protected/tested): Anticonvulsant Screening, mice; for 6 Hz N/F (animals protected/tested) / 6 Hz N/F: CF1 mice; for ED50: Mus musculus, ip; for 6 Hz N/F: Time to Peak Effect (Table 54)

Structure (SMILES): C=C(C)[C@@H]1CCC(C)=C[C@H]1c1c(O)cc(CCCCC)cc1O [cannabidiol, (−)-trans-2-p-mentha-1,8-dien-3-yl-5-pentylresorcinol]
- TOX N/F (minimal motor impairment) ([1]; dose 30, 1.0 h, ethanol:polyethoxylated castor oil:PBS): 0/4
- TOX N/F (minimal motor impairment) ([1]; dose 30, 1.0 h, methylcellulose): 0/4
- TOX N/F (minimal motor impairment) ([1]; dose 30, 2.0 h, ethanol:polyethoxylated castor oil:PBS): 0/4
- TOX N/F (minimal motor impairment) ([1]; dose 30, 2.0 h, methylcellulose): 0/4
- TOX N/F (minimal motor impairment) ([1]; dose 30, 4.0 h, ethanol:polyethoxylated castor oil:PBS): 0/4
- TOX N/F (minimal motor impairment) ([1]; dose 30, 4.0 h, methylcellulose): 0/4
- TOX N/F (minimal motor impairment) ([1]; dose 100, 1.0 h, ethanol:polyethoxylated castor oil:PBS): 0/4
- TOX N/F (minimal motor impairment) ([1]; dose 100, 1.0 h, methylcellulose): 0/4
- TOX N/F (minimal motor impairment) ([1]; dose 100, 2.0 h, ethanol:polyethoxylated castor oil:PBS): 0/4
- TOX N/F (minimal motor impairment) ([1]; dose 100, 2.0 h, methylcellulose): 0/4
- TOX N/F (minimal motor impairment) ([1]; dose 100, 4.0 h, ethanol:polyethoxylated castor oil:PBS): 0/4
- TOX N/F (minimal motor impairment) ([1]; dose 100, 4.0 h, methylcellulose): 0/4
- effect on vincristine-induced mechanical sensitivity (in words) [2]: no main effect of treatment
- effect on oxaliplatin-induced mechanical sensitivity (in words) [3]: attenuated
- alleviating chemotherapy-induced neuropathic pain (in words) ([4]; Example 7, IP, Day 21): most effective level of alleviating chemotherapy-induced neuropathic pain
- minimal effective dose ([4]; IP): 1.25 mg/kg
- effect on paclitaxel-induced mechanical sensitivity (in words) ([4]; pretreatment 15 minutes prior to each paclitaxel injection, IP): significantly attenuated
- Sc MET N/F (animals protected/tested) ([5]; ED50 Biological Response (Table 57), 150 mg/kg, 2 h, methylcellulose): 1/8
- Sc MET N/F (animals protected/tested) ([5]; ED50 Biological Response (Table 57), 300 mg/kg, 2 h, methylcellulose): 5/8
- Sc MET N/F (animals protected/tested) ([5]; ED50 Biological Response (Table 57), 360 mg/kg, 2 h, methylcellulose): 7/8
- Sc MET N/F (animals protected/tested) ([5]; ED50 Biological Response (Table 59), 120 mg/kg, 2 h, ethanol:polyethoxylated castor oil:PBS): 0/8
- Sc MET N/F (animals protected/tested) ([5]; ED50 Biological Response (Table 59), 160 mg/kg, 2 h, ethanol:polyethoxylated castor oil:PBS): 2/8
- Sc MET N/F (animals protected/tested) ([5]; ED50 Biological Response (Table 59), 220 mg/kg, 2 h, ethanol:polyethoxylated castor oil:PBS): 5/8
- Sc MET N/F (animals protected/tested) ([5]; ED50 Biological Response (Table 59), 260 mg/kg, 2 h, ethanol:polyethoxylated castor oil:PBS): 7/8
- ED50 ([5]; 1:1:18 ethanol:polyethoxlated castor oil:PBS solvent): 199 mg/kg
- ED50 ([5]; methylcellulose solvent): 241 mg/kg
- Sc MET N/F (animals protected/tested) ([5]; Tables 57/58, 200 mg/kg, 2 h, methylcellulose): 3/8
- Sc MET N/F (animals protected/tested) ([5]; Time to Peak Effect (Table 58), 200 mg/kg, 0.25 h, methylcellulose): 0/4
- Sc MET N/F (animals protected/tested) ([5]; Time to Peak Effect (Table 58), 200 mg/kg, 0.5 h, methylcellulose): 0/4
- Sc MET N/F (animals protected/tested) ([5]; Time to Peak Effect (Table 58), 200 mg/kg, 1 h, methylcellulose): 2/8
- 6 HZ N/F (animals protected/tested) ([6]; 10 mg/kg, 0.5 h, ethanol:polyethoxylated castor oil:PBS): 0/4
- 6 HZ N/F (animals protected/tested) ([6]; 10 mg/kg, 0.5 h, methylcellulose): 0/4
- 6 HZ N/F (animals protected/tested) ([6]; 10 mg/kg, 1.0 h, ethanol:polyethoxylated castor oil:PBS): 0/4
- 6 HZ N/F (animals protected/tested) ([6]; 10 mg/kg, 1.0 h, methylcellulose): 0/4
- 6 HZ N/F (animals protected/tested) ([6]; 10 mg/kg, 2.0 h, ethanol:polyethoxylated castor oil:PBS): 0/4
- 6 HZ N/F (animals protected/tested) ([6]; 10 mg/kg, 2.0 h, methylcellulose): 0/4
- 6 HZ N/F (animals protected/tested) ([6]; 30 mg/kg, 0.5 h, ethanol:polyethoxylated castor oil:PBS): 0/4
- 6 HZ N/F (animals protected/tested) ([6]; 30 mg/kg, 0.5 h, methylcellulose): 0/4
- 6 HZ N/F (animals protected/tested) ([6]; 30 mg/kg, 1.0 h, ethanol:polyethoxylated castor oil:PBS): 0/4
- 6 HZ N/F (animals protected/tested) ([6]; 30 mg/kg, 1.0 h, methylcellulose): 0/4
- 6 HZ N/F (animals protected/tested) ([6]; 30 mg/kg, 2.0 h, ethanol:polyethoxylated castor oil:PBS): 0/4
- 6 HZ N/F (animals protected/tested) ([6]; 30 mg/kg, 2.0 h, methylcellulose): 0/4
- 6 HZ N/F (animals protected/tested) ([6]; 100 mg/kg, 0.5 h, ethanol:polyethoxylated castor oil:PBS): 2/4
- 6 HZ N/F (animals protected/tested) ([6]; 100 mg/kg, 0.5 h, methylcellulose): 1/4
- 6 HZ N/F (animals protected/tested) ([6]; 100 mg/kg, 1.0 h, ethanol:polyethoxylated castor oil:PBS): 0/4
- 6 HZ N/F (animals protected/tested) ([6]; 100 mg/kg, 1.0 h, methylcellulose): 0/4
- 6 HZ N/F (animals protected/tested) ([6]; 100 mg/kg, 2.0 h, ethanol:polyethoxylated castor oil:PBS): 0/4
- 6 HZ N/F (animals protected/tested) ([6]; 100 mg/kg, 2.0 h, methylcellulose): 0/4
- 6 Hz N/F (animals protected/tested) ([6]; ED50 Biological Response (Table 53), 30 mg/kg, 0.5 h, methylcellulose): 0/8
- 6 Hz N/F (animals protected/tested) ([6]; ED50 Biological Response (Table 53), 65 mg/kg, 0.5 h, methylcellulose): 5/8
- 6 Hz N/F (animals protected/tested) ([6]; ED50 Biological Response (Table 53), 130 mg/kg, 0.5 h, methylcellulose): 5/8
- 6 Hz N/F (animals protected/tested) ([6]; ED50 Biological Response (Table 53), 160 mg/kg, 0.5 h, methylcellulose): 8/16
- 6 Hz N/F (animals protected/tested) ([6]; ED50 Biological Response (Table 53), 190 mg/kg, 0.5 h, methylcellulose): 7/8
- 6 Hz N/F (animals protected/tested) ([6]; ED50 Biological Response (Table 55), 50 mg/kg, 0.5 h, ethanol:polyethoxylated castor oil:PBS): 1/8
- 6 Hz N/F (animals protected/tested) ([6]; ED50 Biological Response (Table 55), 100 mg/kg, 0.5 h, ethanol:polyethoxylated castor oil:PBS): 1/8
- 6 Hz N/F (animals protected/tested) ([6]; ED50 Biological Response (Table 55), 130 mg/kg, 0.5 h, ethanol:polyethoxylated castor oil:PBS): 4/8
- 6 Hz N/F (animals protected/tested) ([6]; ED50 Biological Response (Table 55), 170 mg/kg, 0.5 h, ethanol:polyethoxylated castor oil:PBS): 6/8
- 6 Hz N/F (animals protected/tested) ([6]; ED50 Biological Response (Table 55), 200 mg/kg, 0.5 h, ethanol:polyethoxylated castor oil:PBS): 8/8
- ED50 ([6]; 1:1:18 ethanol:polyethoxylated castor oil:PBS solvent): 122 mg/kg
- ED50 ([6]; methylcellulose solvent): 104 mg/kg
- 6 Hz N/F ([6]; 300 mg/kg, 0.25 h, methylcellulose): 1/8
- 6 Hz N/F ([6]; 300 mg/kg, 0.5 h, methylcellulose): 0/8
- 6 Hz N/F ([6]; 300 mg/kg, 1 h, methylcellulose): 0/8
- 6 Hz N/F ([6]; 300 mg/kg, 2 h, methylcellulose): 0/8
- 6 Hz N/F ([6]; 300 mg/kg, 4 h, methylcellulose): 0/8
- 6 Hz N/F ([6]; 300 mg/kg, 6 h, methylcellulose): 0/8
- 6 Hz N/F ([6]; 300 mg/kg, 24 h, methylcellulose): 0/8
- 6 Hz N/F ([6]; 500 mg/kg, 0.25 h, methylcellulose): 1/8
- 6 Hz N/F ([6]; 500 mg/kg, 0.5 h, methylcellulose): 0/8
- 6 Hz N/F ([6]; 500 mg/kg, 1 h, methylcellulose): 0/8
- 6 Hz N/F ([6]; 500 mg/kg, 2 h, methylcellulose): 0/8
- 6 Hz N/F ([6]; 500 mg/kg, 4 h, methylcellulose): 0/8
- 6 Hz N/F ([6]; 500 mg/kg, 6 h, methylcellulose): 0/8
- 6 Hz N/F ([6]; 500 mg/kg, 24 h, methylcellulose): 2/8
